Test results taken from article PMC12495412, “Coumarin/nitrogen-bearing heterocyclic hybrid-loaded electrospun PMMA/PVP nanofibrous scaffolds for accelerating topical wound healing rates: synthesis and in vitro bio-evaluation” (RSC Advances, 2025).
Values after ≈ are worked out from the molar mass of the structure shown. Marks after values point to notes of the source that are not given here.

Assays:
A549 cells = test: MTT anticancer assay; type: cell-based, human; conditions: Homo sapiens, A549, lung carcinoma cells, 48 h
Source text: (§1) MTT assay: the normal cell line (Wi-38), colon cancer (Caco-2), lung cancer (A549), and breast cancer (MDA) cell lines were sourced from ATCC, USA. All different cell lines were cultivated and preserved in DMEM medium (SERANA, Germany), accompanied by 10% FBS (Gibco, USA) and 1% Pen/Strep solution (Lonza, USA). The newly prepared derivatives at various doses were considered for their anticancer activity and their safety on normal cells, applying MTT (3-[4, 5-dimethylthiazol]-2, 5-diphenyltetrazolium bromide) methods.[22] At first, all normal and cancer cell lines (1.0 ×10^4) were inoculated in 4 antiseptic 96-well tissue culture microplates and incubated for 24 h in a CO2 incubator. After cell attachments, the prepared derivatives were added to both normal Wi-38 cells at diverse concentrations of (6.25–200 μg mL^−1, 2-fold) and cancer cells at different concentrations of (3.125–100 μg mL^−1, 2-fold) in triplicate and incubated for another 48 h at 37 °C in a CO2 incubator with an adjusted concentration of 5%. After that, the treated cells were cleaned three times with PBS to remove debris and dead cells. Next, 200 μL of 0.5 mg mL^−1 MTT dye solution in PBS was mixed in each well, and the cells were further kept for 3 h at 37 °C in a 5% CO2 incubator. After that, MTT was removed and 200 μL of DMSO was added to each well. The optical density (OD) was recorded at 570 nm via a microplate reader (B.M.G. LabTech, Germany). Basic cells (untreated) were utilized as negative control cells, and 5-fluorouracil (5-FU) was included as a standard chemotherapy drug. The qualified cell viability (%) was evaluated as in equation (eqn (1)):1 Relative cell viability (%) = […] A1 is the OD of the examined derivative, A0 is the OD of the standard, and AU is the OD of the untreated cells.
(§2) Anticancer activity assay: the anticancer effect of each derivative was assessed by evaluating the half-maximal inhibitory concentration (IC50) value via the GraphPad Prism 7.0 software. However, SI (selective index) values of each derivative were estimated by splitting the IC50 value of healthy cells by the IC50 value of malignant cells, as previously reported.[23] The effects of the created derivatives on the morphology of MDA cells were evaluated at IC50 doses and captured by phase-contrast microscopy (Olympus, Germany) in comparison to untreated control cells.

MDA cells = test: MTT anticancer assay; type: cell-based, human; conditions: Homo sapiens, Breast carcinoma cell, 48 h
Source text: as §1, §2

K. pneumonia = test: Agar-well diffusion of synthesized compounds; type: cell-based, Klebsiella pneumonia ATCC 13883; conditions: Klebsiella pneumoniae, 100 μL of 10 mg mL^−1 per well, 24 h, 37 °C
Source text: (§3) The antimicrobial activity of the prepared compounds was estimated through an agar-well diffusion method as adapted from the modified Kirby–Bauer protocol.[24] In this test, microbial pathogens were applied, including Staphylococcus aureus ATCC 25923 (S. aureus), Streptococcus mutans ATCC 25175 (S. mutans), Bacillus cereus ATCC 19637 (B. cereus), Bacillus aureus ATCC 25923 (B. aureus), Bacillus epidermidis ATCC 14990 (B. epidermidis), and Bacillus subtilis ATCC 11774 (B. subtilis) as Gram-positive bacteria, and Pseudomonas aeruginosa ATCC 27853 (P. aeruginosa), Klebsiella pneumonia ATCC 13883 (K. pneumonia), and Salmonella typhimurium ATCC 14028 (S. typhimurium), Salmonella pneumoniae ATCC 10031(S. pneumoniae), Escherichia coli ATCC 10536 (E. coli), and Salmonella paratyphi ATCC 9150 (S. paratyphi) as Gram-negative bacteria. Additionally, Candida albicans (ATCC 10231), Candida krusei ATCC 6258 (C. krusei), Candida glabrata ATCC 66032 (C. glabrata), andCandida parapsilosis ATCC 22019 (C. parapsilosis) were applied as models of unicellular fungi. The pre-inoculation cultures of the pathogens were prepared on Muller–Hinton broth and cultivated for 24 h at 37 °C. The agar-well test was prepared on Muller–Hinton agar with 100 μL of each pathogen pre-culture (0.5 McFarland conc.) and uniformly distributed on the plate surface. […]

S. mutans = test: Agar-well diffusion of synthesized compounds; type: cell-based, Streptococcus mutans ATCC 25175; conditions: Streptococcus mutans, 100 μL of 10 mg mL^−1 per well, 24 h, 37 °C
Source text: (§4) The antimicrobial activity of the prepared compounds was estimated through an agar-well diffusion method as adapted from the modified Kirby–Bauer protocol.[24] In this test, microbial pathogens were applied, including Staphylococcus aureus ATCC 25923 (S. aureus), Streptococcus mutans ATCC 25175 (S. mutans), Bacillus cereus ATCC 19637 (B. cereus), Bacillus aureus ATCC 25923 (B. aureus), Bacillus epidermidis ATCC 14990 (B. epidermidis), and Bacillus subtilis ATCC 11774 (B. subtilis) as Gram-positive bacteria, and Pseudomonas aeruginosa ATCC 27853 (P. aeruginosa), Klebsiella pneumonia ATCC 13883 (K. pneumonia), and Salmonella typhimurium ATCC 14028 (S. typhimurium), Salmonella pneumoniae ATCC 10031(S. pneumoniae), Escherichia coli ATCC 10536 (E. coli), and Salmonella paratyphi ATCC 9150 (S. paratyphi) as Gram-negative bacteria. Additionally, Candida albicans (ATCC 10231), Candida krusei ATCC 6258 (C. krusei), Candida glabrata ATCC 66032 (C. glabrata), andCandida parapsilosis ATCC 22019 (C. parapsilosis) were applied as models of unicellular fungi. The pre-inoculation cultures of the pathogens were prepared on Muller–Hinton broth and cultivated for 24 h at 37 °C. The agar-well test was prepared on Muller–Hinton agar with 100 μL of each pathogen pre-culture (0.5 McFarland conc.) and uniformly distributed on the plate surface. Under aseptic conditions, six wells were created on the agar surface using a sterile corkborer (9 mm). To each well, 100 μL of the prepared compound (10 mg mL^−1) was separately inserted into each plate. All plates were incubated for 24 h at 37 °C; the established inhibition zones (Halo-zones) surrounding the wells indicated positive antimicrobial activity and were stated as the radius of the inhibition zone (mm).

P. aeruginosa = test: Agar-well diffusion of synthesized compounds; type: cell-based, Pseudomonas aeruginosa ATCC 27853; conditions: Pseudomonas aeruginosa, 100 μL of 10 mg mL^−1 per well, 24 h, 37 °C
Source text: as §3

all applied pathogens = test: Agar-well diffusion of synthesized compounds, whole panel; type: cell-based
Source text: as §4

Caco-2 cells = test: MTT anticancer assay; type: cell-based
Source text: as §1, §2

Wi-38 cells = test: MTT cytotoxicity assay, normal cells; type: cell-based; conditions: WI-38, normal human lung fibroblast cells, 48 h
Source text: as §1, §2

[1] = system: multidrug-resistant human pathogens; test: Agar-well diffusion of formulations, whole panel; type: cell-based; conditions: all human pathogens investigated
Description: (§5) The antimicrobial qualities of formulations were evaluated in this study using a variety of techniques. The formulations including 8 PMMA and 2 PVP, which contained varying doses of drug A (0.5% = T1, 1% = T2, 3% = T3, and 5% = T4) or drug B (0.5% = T5, 1% = T6, 3% = T7, and 5% = T8), as well as a combination of 2.5% of drug A and 2.5% of drug B (T9) were assessed. The tested human pathogens were cultivated in a nutritional broth medium containing 0.5% peptone, 0.3% yeast extract, 0.2% beef extract, 0.1% glucose, and 0.5% NaCl in accordance with 0.5 McFarland turbidity criteria.[25] To carry out the agar-well diffusion analysis, microbial cultures (100 μL) were spread on nutrient agar plates using sterile cotton swabs. After drilling each well with a sterile cork-borer of 5 mm in diameter, 50 μL of the tested formulations and the control (composed of 8 PMMA and 2 PVP) were loaded. Agar plates were thereafter left to incubate at 37 °C for an entire day. The inhibitory zone that surrounds each well was measured in millimeters (mm) using a ruler.[26]

Candida parapsilosis [2] = test: Biofilm inhibition test (spectrophotometric); type: cell-based; conditions: 24 h, 37 °C, OD vs untreated
Description: (§6) Additionally, a spectrophotometric antibiofilm assay was utilized to determine whether the evaluated formulations might inhibit the growth of pathogens. Fresh nutritional broth was inoculated with each pathogen separately, and this mixture was then incubated at 37 °C at 200 rpm. The optical density (OD) at 600 nm was measured over a 6 h incubation period, allowing for an estimation of the starting microbe's exponential phase (3 × 10^7 CFU mL^−1). To produce treated cultures, 900 μL of planktonic cultures were collected aseptically with 100 μL of each formulation. Furthermore, untreated (formula-free) cultures of pathogens were grown as controls. The cultures were then incubated for 24 hours at 200 rpm and 37 °C. Through spectroscopic evaluation of microbial turbidity, the inhibitory effects of the examined formulations were determined.[27] By comparing the OD of the treated sample with the matching controls, anti-biofilm percentages for each formula were computed.[28]

Candida glabrata [3] = test: Biofilm inhibition test (spectrophotometric); type: cell-based; conditions: 24 h, 37 °C, OD vs untreated
Description: as §6

Bacillus cereus [4] = test: Biofilm inhibition test (spectrophotometric); type: cell-based; conditions: 24 h, 37 °C, OD vs untreated
Description: as §6

Staphylococcus aureus [5] = test: Biofilm inhibition test (spectrophotometric); type: cell-based; conditions: 24 h, 37 °C, OD vs untreated
Description: as §6

Pseudomonas aeruginosa [6] = test: Biofilm inhibition test (spectrophotometric); type: cell-based; conditions: 24 h, 37 °C, OD vs untreated
Description: as §6

Candida krusei [7] = test: Biofilm inhibition test (spectrophotometric); type: cell-based; conditions: 24 h, 37 °C, OD vs untreated
Description: as §6

[8] = system: Staphylococcus epidermidis; test: Biofilm inhibition test (spectrophotometric); type: cell-based; conditions: 24 h, 37 °C, OD vs untreated
Description: as §6

Klebsiella pneumoniae [9] = test: Biofilm inhibition test (spectrophotometric); type: cell-based; conditions: 24 h, 37 °C, OD vs untreated
Description: as §6

Candida albicans [10] = test: Biofilm inhibition test (spectrophotometric); type: cell-based; conditions: 24 h, 37 °C, OD vs untreated
Description: as §6

Bacillus subtilis [11] = test: Biofilm inhibition test (spectrophotometric); type: cell-based; conditions: 24 h, 37 °C, OD vs untreated
Description: as §6

Salmonella paratyphi [12] = test: Biofilm inhibition test (spectrophotometric); type: cell-based; conditions: 24 h, 37 °C, OD vs untreated
Description: as §6

Escherichia coli [13] = test: Biofilm inhibition test (spectrophotometric); type: cell-based; conditions: 24 h, 37 °C, OD vs untreated
Description: as §6

Candida parapsilosis [14] = test: Agar-well diffusion of formulations; type: cell-based; conditions: 50 μL per 5 mm well, 37 °C
Description: as §5

Candida glabrata [15] = test: Agar-well diffusion of formulations; type: cell-based; conditions: 50 μL per 5 mm well, 37 °C
Description: as §5

Bacillus cereus [16] = test: Agar-well diffusion of formulations; type: cell-based; conditions: 50 μL per 5 mm well, 37 °C
Description: as §5

Staphylococcus aureus [17] = test: Agar-well diffusion of formulations; type: cell-based; conditions: 50 μL per 5 mm well, 37 °C
Description: as §5

Pseudomonas aeruginosa [18] = test: Agar-well diffusion of formulations; type: cell-based; conditions: 50 μL per 5 mm well, 37 °C
Description: as §5

Candida krusei [19] = test: Agar-well diffusion of formulations; type: cell-based; conditions: 50 μL per 5 mm well, 37 °C
Description: as §5

[20] = system: Staphylococcus epidermidis; test: Agar-well diffusion of formulations; type: cell-based; conditions: 50 μL per 5 mm well, 37 °C
Description: as §5

Klebsiella pneumoniae [21] = test: Agar-well diffusion of formulations; type: cell-based; conditions: 50 μL per 5 mm well, 37 °C
Description: as §5

Candida albicans [22] = test: Agar-well diffusion of formulations; type: cell-based; conditions: 50 μL per 5 mm well, 37 °C
Description: as §5

Bacillus subtilis [23] = test: Agar-well diffusion of formulations; type: cell-based; conditions: 50 μL per 5 mm well, 37 °C
Description: as §5

Salmonella paratyphi [24] = test: Agar-well diffusion of formulations; type: cell-based; conditions: 50 μL per 5 mm well, 37 °C
Description: as §5

Escherichia coli [25] = test: Agar-well diffusion of formulations; type: cell-based; conditions: 50 μL per 5 mm well, 37 °C
Description: as §5

For `O=C(Nc1ccc(Nc2ccnc3cc(Cl)ccc23)cc1)c1cc2ccccc2oc1=O` [Compound A, N-(4-((7-chloroquinolin-4-yl)amino)phenyl)-2-oxo-2H-chromene-3-carboxamide], the IC50 (A549 cells) was 11.5 ± 1.75 µg/mL (≈ 26 µM), the IC50 (MDA cells) was 5.46 ± 0.27 µg/mL (≈ 12.4 µM) and the zone of inhibition at 10 mg/mL (K. pneumonia) was ~14 mm. For the same compound, the zone of inhibition at 10 mg/mL (S. mutans) was ~14 mm, the zone of inhibition at 10 mg/mL (P. aeruginosa) was ~14 mm and the “Antimicrobial activity” value (all applied pathogens) was “wide-spectrum antibacterial activity”. For the same compound, the IC50 (Caco-2 cells; Homo sapiens, Caco-2, colon carcinoma cells, MTT, 48 h) was 9.03 ± 1.53 µg/mL (≈ 20.4 µM), the “SI Caco-2” value (Caco-2 cells; IC50 Wi-38 / IC50 Caco-2) was 15.38 ± 1.33 and the IC50 (Wi-38 cells) was 139 ± 12 µg/mL (≈ 314 µM).
With `O=C(Nc1ccc(Nc2ccnc3cc(Cl)ccc23)cc1)c1cc2ccccc2oc1=O` [Compound C2] the “Antimicrobial effect” value [1] was “neither C1 nor C2 controls have any effect”, the Biofilm reduction (Candida parapsilosis [2]) was 3.87 ± 0.14^i % and the Biofilm reduction (Candida glabrata [3]) was 6.48 ± 1.87^i %. The Biofilm reduction (Bacillus cereus [4]) was 10.32 ± 0.19^i %, the Biofilm reduction (Staphylococcus aureus [5]) was 11.31 ± 0.17^i % and the Biofilm reduction (Pseudomonas aeruginosa [6]) was 3.65 ± 0.47^i %. The Biofilm reduction (Candida krusei [7]) was 5.24 ± 1.22^i %, the Biofilm reduction [8] was 8.29 ± 0.19^i % and the Biofilm reduction (Klebsiella pneumoniae [9]) was 2.03 ± 0.77^i %. For the same compound, the Biofilm reduction (Candida albicans [10]) was 3.21 ± 0.99^i %, the Biofilm reduction (Bacillus subtilis [11]) was 8.41 ± 0.31^i % and the Biofilm reduction (Salmonella paratyphi [12]) was 7.24 ± 0.38^i %. For the same compound, the Biofilm reduction (Escherichia coli [13]) was 8.31 ± 0.75^i %, the Inhibition zone diameters (Candida parapsilosis [14]) was 0 mm and the Inhibition zone diameters (Candida glabrata [15]) was 0 mm. It also gave an Inhibition zone diameters (Bacillus cereus [16]) of 0 mm, an Inhibition zone diameters (Staphylococcus aureus [17]) of 0 mm and an Inhibition zone diameters (Pseudomonas aeruginosa [18]) of 0 mm. For the same compound, the Inhibition zone diameters (Candida krusei [19]) was 0 mm, the Inhibition zone diameters [20] was 0 mm and the Inhibition zone diameters (Klebsiella pneumoniae [21]) was 0 mm. The Inhibition zone diameters (Candida albicans [22]) was 0 mm, the Inhibition zone diameters (Bacillus subtilis [23]) was 0 mm and the Inhibition zone diameters (Salmonella paratyphi [24]) was 0 mm. For the same compound, the Inhibition zone diameters (Escherichia coli [25]) was 0 mm.
